Reference: patent US12391657B2, “Small molecules that bind and/or modulate differentforms of tau oligomers” (The Board of Regents of the University of Texas System, priority 2019, dated 2025)
“Also recorded” adds a separate entry of the source.

Tests used:
[1] = target: T1, recombinant tau oligomers (TauO) (Homo sapiens, UniProt P10636); assay: Western blot of recombinant tau oligomers with and without compounds; assay type: biochemical; settings: curcumin 5× and 10×, oligomerization conditions
T1 construct: made in house
T1 sequence (P10636 1-441 isoform P10636-8): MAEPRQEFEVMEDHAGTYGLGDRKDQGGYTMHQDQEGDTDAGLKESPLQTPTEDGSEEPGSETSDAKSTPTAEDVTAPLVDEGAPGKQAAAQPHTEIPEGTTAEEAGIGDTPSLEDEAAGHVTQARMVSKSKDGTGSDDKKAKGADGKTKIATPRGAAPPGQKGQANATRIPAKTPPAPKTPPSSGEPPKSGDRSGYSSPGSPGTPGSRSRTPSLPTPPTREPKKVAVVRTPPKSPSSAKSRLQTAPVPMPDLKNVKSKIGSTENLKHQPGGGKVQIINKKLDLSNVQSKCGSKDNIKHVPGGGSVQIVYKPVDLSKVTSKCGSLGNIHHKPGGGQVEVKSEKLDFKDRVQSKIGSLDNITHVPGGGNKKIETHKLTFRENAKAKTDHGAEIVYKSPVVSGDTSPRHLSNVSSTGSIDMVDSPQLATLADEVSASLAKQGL
Description: Pre-cast NuPAGE 4-12% Bis-Tris Gels for SDS-PAGE (Introvigen) were loaded with 3 μg of recombinant tau for each sample per well along with molecular weight marker. After being separated by electrophoresis, proteins were transferred to nitrocellulose membranes. Membranes were then blocked with 10% nonfat milk in Tris-buffered saline with very low tween 0.01% (TBS-T) overnight at 4° C. The next day membranes were probed with T22 (1:250) for tau oligomers and tau5 (1:10000) for total tau, diluted in 5% nonfat milk for 1 hour at RT. Membranes were then incubated with horseradish peroxidase-conjugated IgG anti-rabbit (1:10000) and anti-mouse (1:10000) secondary antibodies to detect, T22 and Tau5, respectively. ECL plus (GE Healthcare) was used for signal detection. Densitometric analysis of each band was quantified using Image J and analyzed by one-way ANOVA.
Recombinant tau protein (tau-441 (2N4R) MW 45.9 kDa) was expressed and purified as described (Margittai and Langen 2004, Margittai and Langen 2006). The tau pellet was treated with 8M urea followed by overnight dialysis against 1× phosphate-buffered saline (PBS) pH 7.4. Tau concentration was measured using bicinchoninic acid protein assay (Micro BCA kit, Pierce) and normalized to 1 mg/ml by adding 1× PBS. Aliquots of tau monomer in PBS were stored at −20° C. […]

[2] = target: T1, recombinant tau oligomers (TauO); assay: Direct ELISA of recombinant tau oligomers with and without compounds; assay type: biochemical; settings: increased concentration of curcumin
Description: ELISA assay was conducted as previously described (Lasagna-Reeves, Castillo-Carranza et al. 2010). […] After washing three times with TBS-T, plates were blocked for 1 hour at 37° C. with 120 μl of 10% non-fat milk in TBS-T. Plates were then washed three times with TBS-T, before probing with 100 μL of primary antibodies for 1 hour at 37° C., T22 (diluted 1:250 in 5% non-fat milk in TBS-T) and Tau 5 (diluted 1:10000 in 5% non-fat milk in TBS-T), respectively . Plates were then washed three times with TBS-T, and probed with 100 μL of horseradish peroxidase-conjugated anti-rabbit or anti-mouse IgG (Promega, Madison, WI) (diluted 1:10000 in 5% non-fat milk in TBS-T). After 1 hour of incubation at 37° C., plates were washed three times with TBS-T and developed with 3, 3, 5, 5-tetramethylbenzidine (TMB-lcomponent substrate, KPL, Gaithersburg, MD). The reaction was stopped by using 100 μL 1M HCl and samples were read at 450 nm using POLARstar OMEGA plate reader. All measurements were performed in triplicate
Compounds were dissolved in ETOH 75%/DMSO (5:1) at a final concentration of 5 mM and diluted in 1× PBS or ddH2O for incubation or toxicity assay (final concentration 5 μM). […]
ELISA assay was conducted as previously described (Lasagna-Reeves, Castillo-Carranza et al. 2010). […] The reaction was stopped using 100 μl of 1M HCl and absorbance was read at 450 nm using POLARstar OMEGA plate reader. […]

[3] = tested on: SH-SY5Y human neuroblastoma cells; assay: MTT viability of SH-SY5Y cells exposed to TauO pre-incubated with compound; assay type: cell-based; settings: 2 μM TauO; curcumin final concentration 10 μM
Description: Human neuroblastoma SH-SY5Y cells were maintained in Dulbecco's modified Eagle's medium (DMEM) and grown to confluence in 96-well plates. […] Cells viability was corrected by the vehicle background. All measurements were performed in triplicate. The cytotoxic effect was determined using 3-(4,5-dimethylthiazol-2-yl)-2,5-diphenyltetrazolium bromide (MTT) assay for assessing cell viability following manufacturers' instructions. Optical density (OD) was measured at 490 nm with POLARstar OMEGA plate reader (BMG Labtechnologies). Cell viability was calculated as the percentage of the OD value of treated cells compared with untreated controls, according to the following equation: Viability=(OD SAMPLE/OD CONTROL)×100. […]
Human neuroblastoma SH-SY5Y cells were maintained in Dulbecco's modified Eagle's medium (DMEM) and grown to confluence in 96-well plates. […] The cytotoxic effect was determined using 3-(4,5-dimethylthiazol-2-yl)-2,5-diphenyltetrazolium bromide (MTT) assay for assessing cell viability following manufacturer's instructions. Optical density (OD) was measured at 490 nm with POLARstar OMEGA plate reader (BMG Labtechnologies). Cell viability was calculated as the percentage of the OD value of treated cells compared with untreated controls, according to the following equation: Viability=(OD SAMPLE/OD CONTROL)×100. […]

[4] = cited from earlier work

Compound: COc1cc(/C=C/C(=O)CC(=O)/C=C/c2ccc(O)c(OC)c2)ccc1O [curcumin]
- aggregation state of preformed tau oligomers, Western blot (T22, Tau 5, Tau 13) [1]: promoting the formation of larger tau aggregates
- aggregation state of preformed tau oligomers, Western blot (T22, Tau 5, Tau 13) ([1]; listed as Curcumin): alters the aggregation states of preformed tau oligomers
- tau oligomer level, T22 immunoreactivity, direct ELISA [2]: significant decrease in T22 immunoreactivity; also recorded: significant decrease in oligomers
- viability of SH-SY5Y cells exposed to TauO pre-incubated with curcumin [3]: significantly higher cells viability when compared to TauO alone; also recorded: rescued cells from TauO-induced toxicity
- solubility in aqueous media [4]: poor solubility in aqueous buffers
